# From US20260317356A1, “SMALL MOLECULE MODULATORS OF OGG1” (AZKARRA THERAPEUTICS, INC., priority 2023, published 2026)
# Target: hOGG1 (Homo sapiens, UniProt O15527)
# Assay: Biochemical fluorescence assay to measure enzymatic activity of hOGG1 (OGG1/APEX IC50)
# Parameters: Protein His-hOGG1 (12-323) was prepared; His (N); host or cells: E. coli
# Settings: 1 nM OGG1+2 nM APEX+6 nM dsDNA (8-oxo-dG substrate); pH 7.5; RT 40 min; read-out: OGG1/APEX IC50
# Description: Biological Example 1: Biochemical Assay to Measure Enzymatic Activity of hOGG1 (OGG1/APEX IC50)
# The reported fluorescence-based assay (Donley et al ACS Chem Biol 2015; 10 (10), 2334-2343) was modified to include hAPE1/APEX1 protein. The oligonucleotide substrate with 8-oxo-dG lesion at X was prepared (LGC Biosearch, Petaluma, CA):
# Protein His-hOGG1 (12-323) was prepared by Chempartner Corporation via E. coliexpression and purification by Ni-NTA and S200 column to afford 95% purity by SDS-PAGE and SEC-HPLC analysis and hAPE1/APEX1 was purchased (SinoBiological). The assay was run in 384-well plates following the general procedure: (1) compound dilution; (2) addition of hOGG1/APEX1 to compound wells; (3) addition of DNA substrate to compound wells; (4) read Ex520/Em600 (TAMRA) fluorescence signal after 40 minutes; (5) calculate % inhibition/compound concentration; (6) calculate dose-response curve and IC50 value.
# • (1) 20 mM of compound solution was prepared in DMSO; • (2) Compounds were diluted to 10 mM in DMSO in ECHO Source plate (Labcyte PP-0200), by mixing […] DMSO; • (3) 4× dilution of compounds, for 10 points, by mixing […] DMSO; and • (4) Dispensed 150 nL compounds to assay plate (Corning 3573) in column 3-22. Dispensed 150 nL DMSO to Min and Max control wells in column 1-2 and column 23-24.
# • (1) Assay buffer was prepared (20 mM Tris pH 7.5, 100 mM KCl, 0.1% BSA, 0.01% Tween). • (2) […] buffer was added to Min control wells (Column 1-2). • (3) Enzyme was diluted to 2× with buffer (2 nM OGG1+4 nM APEX1). Dispensed […] (except Min control wells). Shake at 500 rpm at RT for 20 min. • (4) DNA substrate diluted to 2× with buffer (12 nM). Dispensed […]. Final concentration: 1 nM OGG1+2 nM APEX+6 nM dsDNA. Shake at RT for 40 min. • (5) Ex520/Em600 (TAMRA) was read.
# • (1) Calculated respective mean of Max and Min control wells. • (2) Converted data to percentage inhibition.
# Inhibition (%)=(Max mean−value)/(Max mean−Min mean)×100% • (3) Calculated sigmoidal curve (3-parameter) and IC50 (using GraphPad Prism software).
# Chain of hOGG1 (O15527 12-323): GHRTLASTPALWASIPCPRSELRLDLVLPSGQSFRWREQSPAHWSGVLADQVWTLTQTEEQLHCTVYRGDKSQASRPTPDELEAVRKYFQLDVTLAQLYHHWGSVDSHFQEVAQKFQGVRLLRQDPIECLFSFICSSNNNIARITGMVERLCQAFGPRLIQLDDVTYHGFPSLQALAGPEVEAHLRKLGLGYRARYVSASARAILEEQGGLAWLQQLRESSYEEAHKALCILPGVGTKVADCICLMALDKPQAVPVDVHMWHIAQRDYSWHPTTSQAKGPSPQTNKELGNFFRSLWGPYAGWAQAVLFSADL
row,Compound,IC50 [nM]
1,"COc1ccc(NC(=O)[C@H]2CC[C@@H](N3Cc4c(C)cc(NCCN(C)C)cc4NC3=O)CC2)cc1Cl [Example 100, (1s,4s)-N-(3-chloro-4-methoxyphenyl)-4-(7-(2-(dimethylamino)ethylamino)-5-methyl-2-oxo-1,2-dihydroquinazolin-3(4H)-yl)cyclohexanecarboxamide]",< 100
2,"COc1cc(NC(=O)[C@H]2CC[C@@H](N3Cc4c(Br)cccc4C3=O)CC2)ccc1C [Example 150, (1s,4s)-4-(4-Bromo-1-oxoisoindolin-2-yl)-N-(3-methoxy-4-methylphenyl)cyclohexanecarboxamide]",100 to 1000
3,"COc1cc(NC(=O)[C@H]2CC[C@@H](N3Cc4c(C)cc(NCCN(C)C)cc4C3=O)CC2)ccc1C [Example 208, (1s,4s)-4-(6-(2-(Dimethylamino)ethylamino)-4-methyl-1-oxoisoindolin-2-yl)-N-(3-methoxy-4-methylphenyl)cyclohexanecarboxamide]",< 100
4,"Cc1cc(NCCN(C)C)cc2c1CN([C@H]1CC[C@@H](C(=O)Nc3ccn(CCO)n3)CC1)C2=O [Example 130, (1s,4s)-4-(6-((2-(Dimethylamino)ethyl)amino)-4-methyl-1-oxoisoindolin-2-yl)-N-(1-(2-hydroxyethyl)-1H-pyrazol-3-yl)cyclohexane-1-carboxamide]",1000 to 10000
5,"COc1cc(NC(=O)[C@H]2CC[C@@H](N3Cc4c(Br)cc(NC(C)C(C)O)cc4C3=O)CC2)ccc1C (some centres unmarked) [Example 178, (1s,4s)-4-(4-Bromo-6-(3-hydroxybutan-2-ylamino)-1-oxoisoindolin-2-yl)-N-(3-methoxy-4-methylphenyl)cyclohexanecarboxamide]",1000 to 10000
6,"CCOC(=O)c1ccc2c(c1)CN([C@H]1CC[C@@H](C(=O)Nc3ccc(C)c(OC)c3)CC1)C2=O [Example 171, Ethyl 2-((1s,4s)-4-(3-methoxy-4-methylphenylcarbamoyl)cyclohexyl)-1-oxoisoindoline-5-carboxylate]",> 10000
7,"COc1cc(NC(=O)[C@H]2CC[C@H](N3Cc4c(C)cc(C5COC5)cc4NC3=O)CC2)ccc1C [Example 110, (1r,4r)-N-(3-methoxy-4-methylphenyl)-4-(5-methyl-7-(oxetan-3-yl)-2-oxo-1,2-dihydroquinazolin-3(4H)-yl)cyclohexanecarboxamide]",1000 to 10000
8,"Cc1ccc(NC(=O)[C@H]2CC[C@@H](N3Cc4c(C)cccc4C3=O)CC2)cc1C [Example 236, (1s,4s)-N-(3,4-Dimethylphenyl)-4-(4-methyl-1-oxoisoindolin-2-yl)cyclohexanecarboxamide]",1000 to 10000
9,"COc1cc(NC(=O)[C@H]2CC[C@@H](N3Cc4c(C)cccc4C3=O)CC2)ccc1C(F)(F)F [Example 258, (1s,4s)-N-(3-Methoxy-4-(trifluoromethyl)phenyl)-4-(4-methyl-1-oxoisoindolin-2-yl)cyclohexanecarboxamide]",100 to 1000
10,"COc1cc(NC(=O)[C@H]2CC[C@@H](N3Cc4c(C)cc(CO)cc4C3=O)CC2)ccc1C [Example 214, (1s,4s)-4-(6-(Hydroxymethyl)-4-methyl-1-oxoisoindolin-2-yl)-N-(3-methoxy-4-methylphenyl)cyclohexanecarboxamide]",100 to 1000
11,"COc1cc(NC(=O)[C@H]2CC[C@@H](n3[nH]c4c(C)cccc4c3=O)CC2)ccc1C [Example 118, (1s,4s)-N-(3-Methoxy-4-methylphenyl)-4-(7-methyl-3-oxo-1,3-dihydro-2H-indazol-2-yl)cyclohexane-1-carboxamide]",< 100
12,"CCc1ccc(NC(=O)[C@H]2CC[C@@H](N3Cc4c(C)cccc4NC3=O)CC2)cc1C#N [Example 94, (1s,4s)-N-(3-cyano-4-ethylphenyl)-4-(5-methyl-2-oxo-1,2-dihydroquinazolin-3(4H)-yl)cyclohexanecarboxamide]",100 to 1000
13,"Cc1cccc2c1CN([C@H]1CC[C@@H](C(=O)Nc3ccc4cnn(C)c4c3)CC1)C2=O [Example 215, (1s,4s)-4-(4-Methyl-1-oxoisoindolin-2-yl)-N-(1-methyl-1H-indazol-6-yl)cyclohexanecarboxamide]",1000 to 10000
14,"COc1cc(NC(=O)[C@H]2CC[C@@H](N3Cc4c(ccc(OCCN5CCOCC5)c4C)NC3=O)CC2)ccc1C [Example 50, (1s,4s)-N-(3-Methoxy-4-methylphenyl)-4-(5-methyl-6-(2-morpholinoethoxy)-2-oxo-1,2-dihydroquinazolin-3(4H)-yl)cyclohexanecarboxamide]",1000 to 10000
15,"COc1cc(NC(=O)[C@H]2CC[C@@H](N3Cc4c(C)ccc(OCC5(C)COC5)c4NC3=O)CC2)ccc1C [Example 23, (1s,4s)-N-(3-Methoxy-4-methylphenyl)-4-(5-methyl-8-((3-methyloxetan-3-yl)methoxy)-2-oxo-1,2-dihydroquinazolin-3(4H)-yl)cyclohexanecarboxamide]",100 to 1000
16,"COc1ccc(NC(=O)[C@H]2CC[C@@H](N3Cc4c(C)cc(NCCN(C)C)cc4C3=O)CC2)cc1F [Example 257, (1s,4s)-4-(6-(2-(Dimethylamino)ethylamino)-4-methyl-1-oxoisoindolin-2-yl)-N-(3-fluoro-4-methoxyphenyl)cyclohexanecarboxamide]",< 100
17,"COc1cc(NC(=O)[C@H]2CC[C@@H](N3Cc4c(ccnc4Br)C3=O)CC2)ccc1C [Example 176, (1s,4s)-4-(4-Bromo-1-oxo-1H-pyrrolo[3,4-c]pyridin-2(3H)-yl)-N-(3-methoxy-4-methylphenyl)cyclohexanecarboxamide]",100 to 1000

# Now from value to compound:
row,IC50 [nM],Compound
1,100 to 1000,"COc1cc(NC(=O)[C@H]2CC[C@@H](N3Cc4c(Cl)cccc4N(C)C3=O)CC2)ccc1C [Example 73, (1s,4s)-4-(5-chloro-1-methyl-2-oxo-1,2-dihydroquinazolin-3(4H)-yl)-N-(3-methoxy-4-methylphenyl)cyclohexanecarboxamide]"
2,< 100,"COc1cc(NC(=O)[C@H]2CC[C@@H](N3Cc4c(C)ccc(CN(C)C)c4NC3=O)CC2)ccc1C [Example 52, (1s,4s)-4-(8-((Dimethylamino)methyl)-5-methyl-2-oxo-1,2-dihydroquinazolin-3(4H)-yl)-N-(3-methoxy-4-methylphenyl)cyclohexanecarboxamide]"
3,100 to 1000,"COc1cc(NC(=O)[C@H]2CC[C@@H](N3Cc4c(Br)cc(NCCN5CCOCC5)cc4C3=O)CC2)ccc1C [Example 203, (1s,4s)-4-(4-Bromo-6-(2-morpholinoethylamino)-1-oxoisoindolin-2-yl)-N-(3-methoxy-4-methylphenyl)cyclohexanecarboxamide]"
4,100 to 1000,"Cc1ccc(NC(=O)[C@H]2CC[C@@H](N3Cc4c(C)cccc4C3=O)CC2)cc1Br [Example 124, (1s,4s)-N-(3-Bromo-4-methylphenyl)-4-(4-methyl-1-oxoisoindolin-2-yl)cyclohexane-1-carboxamide]"
5,< 100,"COc1cc(NC(=O)[C@H]2CC[C@@H](N3Cc4c(Br)cc(NCCCN(C)C)cc4C3=O)CC2)ccc1C [Example 205, (1s,4s)-4-(4-Bromo-6-(3-(dimethylamino)propylamino)-1-oxoisoindolin-2-yl)-N-(3-methoxy-4-methylphenyl)cyclohexanecarboxamide]"
6,1000 to 10000,"COc1cc(NC(=O)[C@H]2CC[C@@H](N3Cc4c(cccc4C4CC4)C3=O)CC2)ccc1C [Example 151, (1s,4s)-4-(4-Cyclopropyl-1-oxoisoindolin-2-yl)-N-(3-methoxy-4-methylphenyl)cyclohexanecarboxamide]"
7,1000 to 10000,"Cc1cccc2c1CN([C@H]1CC[C@@H](C(=O)Nc3ccc4ncccc4c3)CC1)C2=O [Example 228, (1s,4s)-4-(4-Methyl-1-oxoisoindolin-2-yl)-N-(quinolin-6-yl)cyclohexanecarboxamide]"
8,> 10000,"O=C(Nc1ccc(I)cc1)N1CCC(N2Cc3c(Br)cccc3C2=O)CC1 [Example 182, 4-(4-Bromo-1-oxoisoindolin-2-yl)-N-(4-iodophenyl) piperidine-1-carboxamide]"
9,100 to 1000,"COc1cc(NC(=O)[C@H]2CC[C@@H](N3Cc4c(Br)cc(NC(=O)Cc5c[nH]cn5)cc4C3=O)CC2)ccc1C [Example 201, (1s,4s)-4-(6-(2-(1H-Imidazol-4-yl)acetamido)-4-bromo-1-oxoisoindolin-2-yl)-N-(3-methoxy-4-methylphenyl)cyclohexanecarboxamide]"
